Experimental findings from paper PMC8838850, “Synthesis, Antimicrobial, Anti-Virulence and Anticancer Evaluation of New 5(4H)-Oxazolone-Based Sulfonamides” (Molecules, 2022) are described below.

The test system of data set [1] is Pseudomonas aeruginosae ATCC 47085. Put plainly: MIC by agar dilution. Format: cell-based, Pseudomonas aeruginosa. The settings on record: ATCC47085, 37 °C, 20 h, read-out: Minimum inhibitory concentration (MIC). The method, then: The MICs of the synthesized compound were determined by agar dilution method according to the Clinical Laboratory and Standards Institute Guidelines (CLSI, 2015). Briefly, the tested strains were incubated overnight in tryptic soy broth (TSB) (Oxoid, United Kingdom) and then diluted in Muller–Hinton (MH) broth (Oxoid, United Kingdom) to turbidity approximating to the equivalent of 0.5 McFarland standard. The suspensions were further diluted with sterile saline (1:10) and standardized inoculums (approximately 10^4 CFU per spot) were spotted on the surfaces of MH agar (Oxoid, United Kingdom) plates containing different concentrations of tested compounds and a control plate. The MICs were the lowest concentrations that inhibit growth on the plates after incubation at 37 °C for 20 h.

A further data set deals with BxPC-3. The data set is described as follows: SRB cellular proliferation assay. In kind it is cell-based, human. The settings on record: Homo sapiens, BxPC-3 cells, mean ± SD (n = 3), read-out: IC50. The method, then:
(§1) The pancreatic human cancer cell lines BxPC-3 and Panc-1, the human hepatocellular carcinoma (HepG-2), and the normal immortalized pancreatic cell line HPDE, that were used in this study, were obtained from the American Type Culture Collection (Rockville, USA). Cell lines were cultured and treated with the tested compounds or dimethyl sulfoxide (DMSO) as previously described. Cells were cultivated in DMEM medium (Invitrogen, Carlsbad, CA, USA), supplemented with streptomycin, penicillin and fetal bovine serum (FCS) (Invitrogen, Carlsbad, CA, USA). The sulforhodamine B (SRB) assay was employed to assess the anti-proliferative effects of tested compounds on cancer cells. Cell lines were incubated and regularly treated with DMSO or increasing doses of tested compounds for 48 h. The cells were fixed with 10% trichloroacetic acid and stained with SRB fluorescent dye for 30 min. Then, the bounded SRB dye to cellular proteins was dissolved in 10 mM Tris base after washing excess dye with 1% acetic acid. The absorbance was measured at 510 nm in a reader (Biotek, Winooski, VT, USA).

In a further data set the test system is HepG-2. The data set is described as follows: SRB cellular proliferation assay. In kind it is cell-based, human. As to conditions: Homo sapiens, HepG2, HepG-2 cells, mean ± SD (n = 3), read-out: IC50. The method, then: as §1
The subject of a further data set is Panc-1. The data set is described as follows: SRB cellular proliferation assay. Format: cell-based, human. As to conditions: Homo sapiens, Panc-1 cells, mean ± SD (n = 3), read-out: IC50. The method, then:
as §1

For the next data set, the system named is S. aureus ATCC 6538. The data set is described as follows: Biofilm formation assay (crystal violet, light microscopy). The settings on record: sub-MIC (½ MIC), crystal violet method. In kind it is cell-based, Staphylococcus aureus. The method, then: (§2) Bacterial virulence is regulated via a quorum sensing (QS) system in an inducer/receptor manner. Diminishing bacterial virulence is an advantageous strategy to decrease the development of bacterial resistance. In this direction, anti-virulence and anti-QS activities have been explored in several studies as reviewed. The ability of P. aeruginosa or S. aureus to form biofilms was assayed in the absence or presence of tested compounds at sub-MIC. […] The experiment was conducted in triplicate and a one-way ANOVA test was employed to test the statistical significance using Graphpad Prism 8 software. The results were significant statistically where p values < 0.05. Moreover, microscopic visualization of biofilm under the effect of tested compounds was also performed by light microscopy. Representative images for the inhibitory effects on S. aureus and P. aeruginosa biofilm formation are shown (Figure 3C,D). The microscopic images show a marked reduction in both the thickness of and surface area covered by the biofilms in presence of the tested compound.
(§3) In order to evaluate the ability of the tested compounds to inhibit the biofilm formation, a strong biofilm forming P. aeruginosa ATCC 47,085 [47, 66] and S. aureus ATCC 6538 [67] strains were used. As described earlier, suspensions of tested strains were prepared from overnight cultures in TSB and their optical densities were adjusted to OD600 of 0.4 (1×10^8 CFU/mL). Aliquots of 10 μL of the suspensions were added to 1 mL amounts of fresh TSB with or without sub-MICs of tested compounds. […] The non-adherent cells were removed, the wells were washed with sterile PBS, and left to dry. The attached biofilm forming cells were fixed with methanol for 25 min and stained with 1% crystal violet for 30 min. The excess dye was washed out and the crystal violet staining adhered biofilm forming cells were eluted by glacial acetic acid (33%). The experiment was conducted in triplicate and the absorbance was measured at 590 nm. The absorbances of tested strains treated with different compounds were expressed as mean ± standard error of percentage change from untreated tested strains control. The percentages of biofilm inhibition were calculated employing the following formula: (absorbance of control—absorbance in presence of tested compounds)/absorbance of control.

Data set [2] deals with P. aeruginosa ATCC 47,085. Described as above. Format: cell-based, Pseudomonas aeruginosa. As to conditions: sub-MIC (½ MIC), crystal violet method. The method, then: as §2, §3
Data set [3] relates to P. aeruginosa. Put plainly: Assay of protease production (casein substrate). The settings on record: sub-MIC. In kind it is cell-based, Pseudomonas aeruginosa. As to the method: The effect of compounds 5, 7 and 10 on the production of protease was evaluated using casein substrate as described earlier. Briefly, overnight cultures of P. aeruginosa and S. aureus were cultivated in LB broth in the presence or absence of compounds 5, 7 and 10 at ½ MIC for 24 h at 37 °C. The supernatants were collected, mixed (1:1) with 0.05 M casein in phosphate buffer (2%) and NaOH (0.1 M) at pH 7.0, and incubated for 15 min at 37 °C. The reaction was stopped by adding 2 mL of 0.4 M trichloroacetic acid for 30 min at 25 °C. Any precipitates were removed, and the optical densities were detected at 660 nm. The assays were performed in triplicate and the obtained optical densities of tested strains treated with compounds 5, 7 and 10 were expressed as mean ± standard error of percentage change from untreated tested strains control (positive control) and LB (negative control). The protease inhibition percentages were calculated: (O.D control—O.D tested compounds)/O.D control.

Data set [4] relates to P. aeruginosa. Put plainly: Quantification of pyocyanin pigment. The settings on record: sub-MIC. Format: cell-based, Pseudomonas aeruginosa. As to the method: The ability of selected compounds 5, 7 and 10 at sub-MIC to reduce the P. aeruginosa pyocyanin pigment production was estimated as described earlier. P. aeruginosa overnight cultures were prepared and diluted in LB broth at 600 nm (O.D0.4), and 10 μL of the bacterial suspensions were added to 1mL broth tubes containing, or not, tested drugs at sub-MIC. After incubation for 48 h at 37 °C, the tubes were centrifuged and the pyocyanin in the supernatant was assayed spectrophotometrically at 691 nm by a Biotek spectrofluorometer (Biotek, Winooski, VT, USA). The experiment was repeated in triplicate, and the pyocyanin absorbances in the presence of tested compounds were expressed as mean ± standard error of percentage change from untreated controls. The percentages of pigment production were calculated using the formula: (absorbance of control − absorbance in presence of tested compounds)/absorbance of control.

In brackets after ≈: the same amount, converted by molar mass.

By IC50 is commonly meant the midpoint of a concentration-inhibition curve. The term melting point denotes the temperature, or range, at which the solid turns liquid. Regarding `Cc1ccc(S(=O)(=O)Nc2ccccc2C2=N/C(=C/c3ccccc3)C(=O)O2)cc1` [Compound 9a, (E)-N-(2-(4-Benzylidene-5-oxo-4,5-dihydrooxazol-2-yl)phenyl)-4-methylbenzenesulfonamide], the melting point lay within 214 to 216 °C. Further, the MIC in data set [1] amounted to 8 µg/mL (≈ 19.1 µM). For the same molecule, the IC50 in the data set on BxPC-3 was found to be 14.4 ± 0.73 µg/mL (≈ 34.4 µM). For the same molecule, the IC50 in the data set with HepG-2 worked out at 11 ± 2.39 µg/mL (≈ 26.2 µM). Besides, in the data set with Panc-1, the IC50 was 11.9 ± 0.76 µg/mL (≈ 28.6 µM). Moreover, the “Inhibition of biofilm formation” value in the data set on S. aureus ATCC 6538 was “highest abilities to inhibit biofilm formation”. In addition, in [2], the “Inhibition of biofilm formation” value is recorded as “highest abilities to inhibit biofilm formation”. Further, the Production of protease entry in the data set with P. aeruginosa [3] was “significantly reduced the production of protease”. In addition, in the data set on P. aeruginosa [4], the “Production of pigment pyocyanin” value is “significantly decreased the production”.

In the case of `COc1ccc(/C=C2/N=C(c3ccccc3NS(=O)(=O)c3ccc(C)cc3)OC2=O)cc1` [Compound 9b, (E)-N-(2-(4-(4-Methoxybenzylidene)-5-oxo-4,5-dihydrooxazol-2-yl)phenyl)-4-methylbenzenesulfonamide], the MIC in data set [1] was determined as 4 µg/mL (≈ 8.92 µM). Moreover, the IC50 in the data set with BxPC-3 turned out to be 14.9 ± 4.19 µg/mL (≈ 33.2 µM); with HepG-2, 8.53 ± 1.1 µg/mL (≈ 19 µM); in the data set with Panc-1, 13.6 ± 1.16 µg/mL (≈ 30.4 µM). Moreover, the “Inhibition of biofilm formation” value (in the data set on S. aureus ATCC 6538; in data set [2]) was “highest abilities to inhibit biofilm formation” in each case. Also, in the data set with P. aeruginosa [3], the Production of protease result was “significantly reduced the production of protease”. Also, the “Production of pigment pyocyanin” value with P. aeruginosa [4] is recorded as “significantly decreased the production”.

`Cc1ccc(S(=O)(=O)Nc2ccccc2C2=N/C(=C/c3ccc([N+](=O)[O-])cc3)C(=O)O2)cc1` [Compound 9f, (E)-4-Methyl-N-(2-(4-(4-nitrobenzylidene)-5-oxo-4,5-dihydrooxazol-2-yl)phenyl)benzenesulfonamide] returned a melting point of 250 to 252 °C. Besides, in [1], the MIC turned out to be 4 µg/mL (≈ 8.63 µM). For the same molecule, the IC50 with BxPC-3 is 14.2 ± 1.87 µg/mL (≈ 30.6 µM). For the same molecule, in the data set on HepG-2, the IC50 worked out at 6.39 ± 1.25 µg/mL (≈ 13.8 µM). In addition, the IC50 in the data set with Panc-1 is 12.6 ± 1.2 µg/mL (≈ 27.2 µM). The “Inhibition of biofilm formation” value with S. aureus ATCC 6538 is recorded as “highest abilities to inhibit biofilm formation”. Besides, in data set [2], the “Inhibition of biofilm formation” value is reported as “highest abilities to inhibit biofilm formation”. Also, in the data set on P. aeruginosa [3], the Production of protease result is on record as “significantly reduced the production of protease”. For the same molecule, in the data set with P. aeruginosa [4], the “Production of pigment pyocyanin” value is on record as “significantly decreased the production”.
